From publication PMC8233418, “Structure and transport mechanism of P5B-ATPases” (Nature Communications, 2021)

Assays:
Ypk9 [1] = target: T1, Ypk9 (Thermochaetoides thermophila, UniProt G0S7G9); assay: ATPase activity, malachite green phosphate release; format: biochemical; conditions: 5 mM MgCl2, pH 7.0, 37 °C
T1 construct: gene CTHT_0028100; full length, introns removed; N- or C-terminal TEV-G4S-GFP-His10 fusion, made in S. cerevisiae PAP1500; purified in DDM/CHS (ATPase assay) or reconstituted in nanodiscs (cryo-EM)

Ypk9 [2] = target: T1, Ypk9; assay: ATPase activity, malachite green phosphate release; format: biochemical; conditions: 6 mM SPM, 1 mM ATP, 5 mM MgCl2, 100 mM KCl, pH 7.0, 37 °C, DDM/CHS
Ypk9 [3] = target: T1, Ypk9; assay: cryo-EM structure (E2.Pi-SPM […] Å; E2.Pi-AlF/SPM […] Å; E2P* […] Å); format: binding; conditions: 1 mM SPM with 1 mM MgCl2, AlF or BeF3−; nanodiscs; luminal cleft between TM2, 4 and 6

T1 sequence (G0S7G9 entry or part of it): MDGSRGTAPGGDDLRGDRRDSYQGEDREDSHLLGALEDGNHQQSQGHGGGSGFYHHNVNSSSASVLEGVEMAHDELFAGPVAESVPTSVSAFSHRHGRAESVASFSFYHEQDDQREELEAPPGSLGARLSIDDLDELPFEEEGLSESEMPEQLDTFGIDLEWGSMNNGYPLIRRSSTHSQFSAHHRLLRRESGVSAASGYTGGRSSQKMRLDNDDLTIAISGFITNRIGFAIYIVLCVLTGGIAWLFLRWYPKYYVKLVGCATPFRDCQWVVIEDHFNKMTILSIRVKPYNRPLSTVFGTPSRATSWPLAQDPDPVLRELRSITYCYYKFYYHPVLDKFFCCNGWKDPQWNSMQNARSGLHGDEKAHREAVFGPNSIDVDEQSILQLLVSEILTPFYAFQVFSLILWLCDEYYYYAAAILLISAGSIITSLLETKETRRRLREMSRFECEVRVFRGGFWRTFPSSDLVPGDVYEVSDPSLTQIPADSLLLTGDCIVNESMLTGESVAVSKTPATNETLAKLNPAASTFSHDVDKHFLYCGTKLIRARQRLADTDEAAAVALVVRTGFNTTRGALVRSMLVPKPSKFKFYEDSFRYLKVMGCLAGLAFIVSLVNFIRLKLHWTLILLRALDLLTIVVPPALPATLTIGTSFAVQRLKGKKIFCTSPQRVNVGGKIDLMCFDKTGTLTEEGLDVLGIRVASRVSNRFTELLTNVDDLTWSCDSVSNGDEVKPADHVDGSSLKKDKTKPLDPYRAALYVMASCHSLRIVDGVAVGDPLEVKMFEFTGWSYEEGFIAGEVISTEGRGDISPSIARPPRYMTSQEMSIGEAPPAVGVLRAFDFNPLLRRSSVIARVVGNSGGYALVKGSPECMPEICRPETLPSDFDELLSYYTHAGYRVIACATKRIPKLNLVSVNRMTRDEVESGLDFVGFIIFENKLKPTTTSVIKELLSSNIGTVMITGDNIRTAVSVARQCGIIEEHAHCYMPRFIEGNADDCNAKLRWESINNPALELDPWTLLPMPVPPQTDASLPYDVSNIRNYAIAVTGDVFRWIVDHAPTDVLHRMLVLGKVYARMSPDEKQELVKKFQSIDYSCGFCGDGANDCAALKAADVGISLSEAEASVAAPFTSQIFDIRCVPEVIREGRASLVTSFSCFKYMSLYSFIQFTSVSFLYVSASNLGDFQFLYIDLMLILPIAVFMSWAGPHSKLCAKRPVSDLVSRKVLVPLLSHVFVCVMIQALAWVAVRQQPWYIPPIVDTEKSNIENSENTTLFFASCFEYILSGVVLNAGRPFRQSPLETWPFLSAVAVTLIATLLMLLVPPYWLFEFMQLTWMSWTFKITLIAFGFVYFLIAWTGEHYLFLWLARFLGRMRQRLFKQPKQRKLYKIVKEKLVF

Compound: [F][Be-]([F])[F] [BeF3−]
- inhibition at 1 mM (Ypk9 [1]; 1 mM BeF3−, 1 mM ATP, phosphate analogue): inhibited by the inhibitors BeF3^− and NaVO4^−

Compound: [O]=[V]([OH])([OH])[OH] [NaVO4−]
- inhibition at 1 mM (Ypk9 [1]; 1 mM NaVO4, 1 mM ATP): inhibited by the inhibitors BeF3^− and NaVO4^−

Compound: NCCCNCCCCNCCCN [spermine]
- ATPase stimulation (Ypk9 [2]): ATPase activity of purified Ypk9 is stimulated by the polyamine spermine (SPM)
- cryo-EM structure (E2.Pi-SPM 3.5 Å; E2.Pi-AlF/SPM 3.4 Å; E2P* 3.7 Å) (Ypk9 [3]): The cleft harbors an additional, elongated density compatible with the presence of SPM
